Assay results published in ChEMBL document CHEMBL4665643 (Bioorg Med Chem Lett, 2019).
pIC50, pKi: −log10 of the molar value.

Tests used:
[1] = target: T1, Tyrosine-protein kinase JAK1 (Homo sapiens, UniProt P23458); experiment: biochemical
Description: Inhibition of recombinant human JAK1 (854 to 1154 residues) expressed in insect cells using Y1-B as substrate incubated for 30 mins by microfluidic mobility shift assay

[2] = target: Tyrosine-protein kinase JAK2 (Homo sapiens, UniProt O60674)
Description: Inhibition of recombinant human JAK2 (812 to 1132 residues) expressed in insect cells using Y1-B as substrate incubated for 30 mins by microfluidic mobility shift assay

[3] = target: Janus Kinase (JAK) (Homo sapiens, UniProt P52333+P23458+O60674+P29597); conditions: beas-2b
Description: Inhibition of JAK in human BEAS-2B cells assessed as reduction in IL13-induced STAT6 phosphorylation incubated for 1 hr followed by IL13 addition and measured after 15 mins by immunofluorescence assay

[4] = Metabolic stability in human liver microsomes assessed as intrinsic clearance at 1 uM measured upto 60 mins by LC-MS/MS analysis; assay type: ADME, Microsome; conditions: read-out: CLH
[5] = in vitro; conditions: dog, MDCK
Description: Apparent permeability across apical to basolateral side in MDCK cells at 10 uM incubated upto 180 mins by LC/MS-MS analysis

[6] = Lipophilicity, logD of compound; assay type: physicochemical; conditions: octanol/water
[7] = target: LRRK2 (Homo sapiens, UniProt Q5S007); experiment: Inhibition of recombinant human GST-tagged LRRK2 (970 to 2527 residues) expressed in baculovirus expression system using LRRKtide as substrate at 0.1 uM incubated for 60 mins by Adapta assay relative to control; conditions: probe LRRKtide
Sequence of LRRK2 (Q5S007 whole entry, the tested form may be a part): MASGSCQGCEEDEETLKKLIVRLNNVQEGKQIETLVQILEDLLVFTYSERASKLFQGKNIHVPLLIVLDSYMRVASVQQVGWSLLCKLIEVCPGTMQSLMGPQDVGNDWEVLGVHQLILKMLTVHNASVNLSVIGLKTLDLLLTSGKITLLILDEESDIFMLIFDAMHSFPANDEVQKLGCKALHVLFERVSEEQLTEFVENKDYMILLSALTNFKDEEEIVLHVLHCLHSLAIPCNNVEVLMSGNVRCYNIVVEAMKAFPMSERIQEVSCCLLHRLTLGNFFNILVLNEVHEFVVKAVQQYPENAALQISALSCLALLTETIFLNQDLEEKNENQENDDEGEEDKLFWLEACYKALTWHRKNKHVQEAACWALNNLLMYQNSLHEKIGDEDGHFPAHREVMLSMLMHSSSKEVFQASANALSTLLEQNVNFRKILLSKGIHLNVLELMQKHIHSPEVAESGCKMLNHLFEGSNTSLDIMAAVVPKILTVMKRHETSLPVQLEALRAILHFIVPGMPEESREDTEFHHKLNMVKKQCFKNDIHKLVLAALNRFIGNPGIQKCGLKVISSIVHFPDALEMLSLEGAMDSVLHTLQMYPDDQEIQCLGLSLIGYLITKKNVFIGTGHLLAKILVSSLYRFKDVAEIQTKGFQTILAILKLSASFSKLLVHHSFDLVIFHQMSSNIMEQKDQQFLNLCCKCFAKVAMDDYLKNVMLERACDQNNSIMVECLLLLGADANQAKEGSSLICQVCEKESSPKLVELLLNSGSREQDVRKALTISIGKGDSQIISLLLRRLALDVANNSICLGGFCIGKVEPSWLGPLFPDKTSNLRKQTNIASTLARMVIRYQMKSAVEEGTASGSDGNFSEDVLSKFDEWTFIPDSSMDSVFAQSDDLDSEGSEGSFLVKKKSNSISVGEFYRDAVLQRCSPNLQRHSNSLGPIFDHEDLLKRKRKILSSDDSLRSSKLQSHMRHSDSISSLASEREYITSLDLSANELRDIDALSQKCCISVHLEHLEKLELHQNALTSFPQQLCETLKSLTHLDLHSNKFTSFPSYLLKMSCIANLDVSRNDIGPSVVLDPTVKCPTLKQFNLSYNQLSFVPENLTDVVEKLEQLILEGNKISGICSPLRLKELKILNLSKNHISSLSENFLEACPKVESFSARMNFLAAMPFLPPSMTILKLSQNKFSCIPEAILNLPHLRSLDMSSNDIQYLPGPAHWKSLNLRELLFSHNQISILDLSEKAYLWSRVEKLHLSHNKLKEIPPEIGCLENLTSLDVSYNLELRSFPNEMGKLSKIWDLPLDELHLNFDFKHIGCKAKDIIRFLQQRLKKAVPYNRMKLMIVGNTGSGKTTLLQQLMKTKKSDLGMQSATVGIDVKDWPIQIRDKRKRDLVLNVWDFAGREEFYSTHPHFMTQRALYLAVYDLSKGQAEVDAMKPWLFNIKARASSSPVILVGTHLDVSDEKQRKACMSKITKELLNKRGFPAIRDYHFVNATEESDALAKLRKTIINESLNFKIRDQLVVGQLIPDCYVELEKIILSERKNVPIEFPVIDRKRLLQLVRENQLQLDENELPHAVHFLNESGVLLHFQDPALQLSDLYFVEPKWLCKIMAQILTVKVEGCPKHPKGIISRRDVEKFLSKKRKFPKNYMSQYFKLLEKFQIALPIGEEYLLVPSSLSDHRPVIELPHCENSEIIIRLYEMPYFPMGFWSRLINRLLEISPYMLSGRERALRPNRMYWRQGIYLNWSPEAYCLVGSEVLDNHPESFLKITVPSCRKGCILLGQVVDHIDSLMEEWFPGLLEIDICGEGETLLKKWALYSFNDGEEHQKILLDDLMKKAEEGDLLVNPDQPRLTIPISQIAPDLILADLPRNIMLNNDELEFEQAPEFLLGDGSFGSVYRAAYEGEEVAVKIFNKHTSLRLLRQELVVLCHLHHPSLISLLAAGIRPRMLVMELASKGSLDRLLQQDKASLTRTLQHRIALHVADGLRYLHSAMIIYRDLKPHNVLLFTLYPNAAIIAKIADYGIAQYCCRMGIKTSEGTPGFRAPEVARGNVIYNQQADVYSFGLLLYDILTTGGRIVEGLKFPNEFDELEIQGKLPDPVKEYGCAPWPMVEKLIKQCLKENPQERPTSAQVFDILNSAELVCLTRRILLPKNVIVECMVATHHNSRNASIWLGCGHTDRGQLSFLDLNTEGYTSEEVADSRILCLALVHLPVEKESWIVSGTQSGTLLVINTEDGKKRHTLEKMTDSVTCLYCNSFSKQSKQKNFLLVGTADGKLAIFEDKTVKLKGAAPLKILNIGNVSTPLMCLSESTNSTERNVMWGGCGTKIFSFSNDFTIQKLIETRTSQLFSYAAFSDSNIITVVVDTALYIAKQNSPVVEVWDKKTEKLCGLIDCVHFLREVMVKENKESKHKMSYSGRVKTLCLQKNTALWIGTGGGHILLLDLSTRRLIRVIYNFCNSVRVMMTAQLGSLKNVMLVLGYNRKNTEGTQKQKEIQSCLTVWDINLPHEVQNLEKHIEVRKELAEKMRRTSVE

[8] = in vitro; conditions: dog, MDCK; remark: listed apart in the source
Description: Efflux ratio of apparent permeability basolateral to apical over apical to basolateral side in MDCK cells at 10 uM incubated upto 180 mins by LC/MS-MS analysis

[9] = target: Leucine-rich repeat serine/threonine-protein kinase 2 (Homo sapiens, UniProt Q5S007); experiment: Inhibition of recombinant human GST-tagged LRRK2 (970 to 2527 residues) expressed in baculovirus expression system using LRRKtide as substrate incubated for 60 mins by Adapta assay
Sequence of Leucine-rich repeat serine/threonine-protein kinase 2 (Q5S007 whole entry, the tested form may be a part): as above

[10] = species on record: Homo sapiens
[11] = target: T1, Tyrosine-protein kinase JAK1

T1 sequence (P23458 whole entry): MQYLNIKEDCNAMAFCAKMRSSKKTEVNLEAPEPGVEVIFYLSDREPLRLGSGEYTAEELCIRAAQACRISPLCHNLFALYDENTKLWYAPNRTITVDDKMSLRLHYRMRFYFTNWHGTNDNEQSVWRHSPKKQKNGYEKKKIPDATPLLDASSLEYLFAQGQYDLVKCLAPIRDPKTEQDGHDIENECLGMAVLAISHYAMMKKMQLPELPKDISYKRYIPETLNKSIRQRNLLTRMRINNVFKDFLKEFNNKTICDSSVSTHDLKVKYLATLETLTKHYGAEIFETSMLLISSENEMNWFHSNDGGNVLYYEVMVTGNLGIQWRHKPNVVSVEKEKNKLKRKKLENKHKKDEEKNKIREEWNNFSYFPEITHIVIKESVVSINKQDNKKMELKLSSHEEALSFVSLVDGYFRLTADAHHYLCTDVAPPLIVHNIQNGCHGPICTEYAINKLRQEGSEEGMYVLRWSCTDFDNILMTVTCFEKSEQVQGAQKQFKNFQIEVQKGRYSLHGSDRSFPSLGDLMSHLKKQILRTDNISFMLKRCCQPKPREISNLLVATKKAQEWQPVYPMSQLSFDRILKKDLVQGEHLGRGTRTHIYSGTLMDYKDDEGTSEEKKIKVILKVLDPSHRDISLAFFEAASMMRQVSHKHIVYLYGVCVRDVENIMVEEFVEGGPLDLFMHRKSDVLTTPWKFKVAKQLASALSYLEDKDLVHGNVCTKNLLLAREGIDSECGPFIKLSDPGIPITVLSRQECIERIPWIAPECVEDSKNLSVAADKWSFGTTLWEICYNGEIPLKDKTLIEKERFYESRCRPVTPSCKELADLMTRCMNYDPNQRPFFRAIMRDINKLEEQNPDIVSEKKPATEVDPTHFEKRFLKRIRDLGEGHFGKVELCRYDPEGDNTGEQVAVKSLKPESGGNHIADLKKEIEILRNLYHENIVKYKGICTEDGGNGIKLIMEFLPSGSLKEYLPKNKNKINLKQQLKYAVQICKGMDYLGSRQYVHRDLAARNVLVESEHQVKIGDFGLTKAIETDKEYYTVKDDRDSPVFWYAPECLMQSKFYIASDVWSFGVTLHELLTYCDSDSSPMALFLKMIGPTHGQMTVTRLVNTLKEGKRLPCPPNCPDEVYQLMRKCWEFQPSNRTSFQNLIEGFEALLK
Sequence of Tyrosine-protein kinase JAK2 (O60674 whole entry): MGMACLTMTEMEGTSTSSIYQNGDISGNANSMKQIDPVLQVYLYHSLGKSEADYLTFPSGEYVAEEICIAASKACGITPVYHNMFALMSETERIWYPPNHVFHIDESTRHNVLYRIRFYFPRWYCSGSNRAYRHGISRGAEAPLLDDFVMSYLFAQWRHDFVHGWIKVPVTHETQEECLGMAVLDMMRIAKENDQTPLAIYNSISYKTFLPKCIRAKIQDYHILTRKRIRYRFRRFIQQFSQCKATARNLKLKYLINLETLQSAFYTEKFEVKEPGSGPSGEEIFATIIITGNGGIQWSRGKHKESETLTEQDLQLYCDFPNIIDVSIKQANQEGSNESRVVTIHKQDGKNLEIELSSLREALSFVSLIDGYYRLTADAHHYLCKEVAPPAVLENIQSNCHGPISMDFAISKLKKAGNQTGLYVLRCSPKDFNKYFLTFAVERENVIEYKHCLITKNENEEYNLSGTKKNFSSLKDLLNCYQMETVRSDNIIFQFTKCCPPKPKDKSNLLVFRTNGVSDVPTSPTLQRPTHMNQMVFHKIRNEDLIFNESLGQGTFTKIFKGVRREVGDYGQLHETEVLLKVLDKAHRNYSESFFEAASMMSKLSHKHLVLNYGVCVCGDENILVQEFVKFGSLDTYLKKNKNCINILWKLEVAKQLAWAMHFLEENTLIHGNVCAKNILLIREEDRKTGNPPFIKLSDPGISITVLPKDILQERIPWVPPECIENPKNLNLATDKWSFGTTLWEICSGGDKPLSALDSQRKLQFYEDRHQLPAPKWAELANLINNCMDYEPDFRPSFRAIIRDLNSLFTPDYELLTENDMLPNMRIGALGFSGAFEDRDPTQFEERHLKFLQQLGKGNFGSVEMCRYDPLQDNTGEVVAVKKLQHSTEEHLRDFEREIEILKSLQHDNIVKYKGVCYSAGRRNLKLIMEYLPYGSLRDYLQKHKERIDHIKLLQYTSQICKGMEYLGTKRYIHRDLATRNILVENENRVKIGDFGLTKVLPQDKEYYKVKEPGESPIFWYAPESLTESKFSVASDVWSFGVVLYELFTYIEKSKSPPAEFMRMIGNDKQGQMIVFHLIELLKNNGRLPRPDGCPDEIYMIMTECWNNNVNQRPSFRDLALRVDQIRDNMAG

Compound | pKi [1] | pKi [2] | IC50 [3] [nM] | further results
Cn1cc(NC(=O)c2cnn3cccnc23)c(-c2cc(Cl)ccc2CO)n1 | 7.35 | 8.07 | – | –
COc1cc2[nH]ncc2cc1-c1n[nH]cc1NC(=O)c1cnn2cccnc12 | – | – | 370 | –
O=C(Nc1c[nH]nc1-c1cc(Cl)ccc1OC(F)F)c1cnn2cc(F)cnc12 | 8.11 | 8.62 | – | –
Cn1cc(NC(=O)c2cnn3cccnc23)c(-c2cc(Cl)ccc2Cl)n1 | – | – | – | Papp A→B at 3 h, 10 µM [5]: 20 ×10⁻⁶ cm/s; logD [6]: 2.9
O=C(Nc1c[nH]nc1-c1cc(Cl)ccc1OC(F)F)c1cnc2[nH]ccc2n1 | 8.25 | 9.02 | 42 | –
COc1ccc(Cl)cc1-c1nn(C)cc1NC(=O)c1cncc2cccnc12 | 8.72 | 9.21 | 38 | –
Cc1cc(Nc2nccc3nc(-c4c(Cl)cc(C#N)cc4Cl)[nH]c23)ncn1 | 7.64 | – | 1300 | Papp A→B at 3 h, 10 µM [5]: 16 ×10⁻⁶ cm/s; efflux ratio at 3 h, 10 µM [8]: 0.81
Cn1ncc(NC(=O)c2cnn3cccnc23)c1-c1cc(Cl)ccc1Cl | 7.41 | 8.46 | > 1000 | –
O=C(Nc1c[nH]nc1-c1ccccc1OC(F)F)c1cnn2cccnc12 | 8.48 | 9.07 | – | –
CC[C@@H]1CN(C(=O)NCC(F)(F)F)C[C@@H]1c1cnc2cnc3[nH]ccc3n12 [UPADACITINIB] | – | – | – | Papp A→B at 3 h, 10 µM [5]: 3.6 ×10⁻⁶ cm/s
COc1c(F)cc(Cl)cc1-c1n[nH]cc1NC(=O)c1cnn2cccnc12 | 8.04 | 8.92 | – | –
COc1ccc(Cl)cc1-c1nn(C)cc1NC(=O)c1cncc2[nH]nnc12 | 6.43 | 6.14 | – | –
CC(C)Oc1ccc(Cl)cc1-c1nn(C)cc1NC(=O)c1cnn2cccnc12 | 8.10 | 8.70 | – | –
Cc1nc(-c2cc(Cl)ccc2OC(F)F)c(NC(=O)c2cnn3cccnc23)[nH]1 | 8.41 | 8.96 | – | –
O=C(Nc1c[nH]nc1-c1cc(Cl)ccc1OC(F)(F)F)c1cnn2cccnc12 | 8.68 | 9.31 | 64 | –
CCn1c(C(=O)N(C2CC2)C2CC2)cc2c3c(ncn3C)c(Nc3cc(C)n(C)n3)nc21 [BMS-911543] | 6.44 | – | > 1000 | Papp A→B at 3 h, 10 µM [5]: 16 ×10⁻⁶ cm/s; efflux ratio at 3 h, 10 µM [8]: 0.94
C[C@@H](O)c1nc2cnc3[nH]ccc3c2n1[C@H]1CCCOC1 | 8.54 | – | 210 | Papp A→B at 3 h, 10 µM [5]: 6.2 ×10⁻⁶ cm/s; efflux ratio at 3 h, 10 µM [8]: 0.81
C#Cc1ccc2ncc(C(=O)Nc3c[nH]nc3-c3cc(Cl)ccc3OC(F)F)n2n1 | – | 10.11 | 13 | –
COc1ccc(Cl)cc1-c1nn(C)cc1NC(=O)c1cncc2[nH]cnc12 | 8.24 | 8.59 | – | –
Cn1cc(NC(=O)c2cnn3cccnc23)c(-c2cc(Cl)ccc2O)n1 | 7.49 | 7.89 | – | –
Cn1cc(NC(=O)c2cnn3cccnc23)c(-c2cc(Cl)ccc2CCO)n1 | 7.92 | 8.40 | – | –
COc1ccc(Cl)cc1-c1nn(C)cc1NC(=O)c1cncc2cn(C)nc12 | 8.37 | 8.33 | 93 | –
O=C(Nc1c[nH]nc1-c1cc(Cl)ccc1OC(F)F)c1cncc2ccoc12 | 8.74 | 9.30 | 36 | –
COc1cc(F)c(Cl)cc1-c1n[nH]cc1NC(=O)c1cnn2cccnc12 | 8.66 | 9.10 | 42 | –

The next lines start with results.

pKi [1] | pKi [2] | IC50 [3] [nM] | Compound | further results
9.02 | 9.54 | 15 | COc1ccc(Cl)c(F)c1-c1n[nH]cc1NC(=O)c1cnn2cccnc12 | –
9.92 | 10.33 | 3.3 | O=C(Nc1c[nH]nc1-c1cc(Br)ccc1OC(F)F)c1cnn2cccnc12 | CLint scaled at 1 µM [4]: 15 mL/min/kg; Papp A→B at 3 h, 10 µM [5]: 17 ×10⁻⁶ cm/s; logD [6]: 3.2; inhibition at 1 h, 0.1 µM [7]: 86%; efflux ratio at 3 h, 10 µM [8]: 1.2
9.34 | 9.64 | 11 | CSc1ccc(Cl)cc1-c1nn(C)cc1NC(=O)c1cnn2cccnc12 | –
9.04 | 9.55 | – | Cn1cc(NC(=O)c2cnn3cccnc23)c(-c2cc(Cl)ccc2C2CC2)n1 | –
9.07 | 9.64 | 26 | O=C(Nc1c[nH]nc1-c1cc(Cl)ccc1SC(F)F)c1cnn2cccnc12 | –
9.28 | 9.72 | 13 | CCc1ccc(OC(F)F)c(-c2n[nH]cc2NC(=O)c2cnn3cccnc23)c1 | –
9.33 | 10.07 | 20 | O=C(Nc1c[nH]nc1-c1cc(Cl)ccc1OC(F)F)c1snc2cccnc12 | –
9.68 | 10.15 | 5 | O=C(Nc1c[nH]nc1-c1cc(Cl)ccc1OC(F)F)c1cnc2cccnn12 | –
9.05 | 9.57 | 22 | N#Cc1ccc(OC(F)F)c(-c2n[nH]cc2NC(=O)c2cnn3cccnc23)c1 | –
9.00 | 10.00 | 34 | Cc1ccn2ncc(C(=O)Nc3c[nH]nc3-c3cc(Cl)ccc3OC(F)F)c2n1 | –
10.12 | 10.28 | 40 | O=C(Nc1c[nH]nc1-c1cc2cn[nH]c2cc1OC(F)F)c1cnn2cccnc12 | CLint scaled at 1 µM [4]: 4.4 mL/min/kg; Papp A→B at 3 h, 10 µM [5]: 1.6 ×10⁻⁶ cm/s; logD [6]: 1.6; inhibition at 1 h, 0.1 µM [7]: 89%; efflux ratio at 3 h, 10 µM [8]: 1
9.96 | 10.24 | 36 | O=C(Nc1c[nH]nc1-c1cc(Cl)c(O)cc1OC(F)F)c1cnn2cccnc12 | –
9.05 | 9.44 | 23 | COc1ccc(Cl)cc1-c1n[nH]cc1NC(=O)c1cnn2cccnc12 | –
9.00 | 9.35 | 58 | COc1ccc(Cl)cc1-c1nc(C)sc1NC(=O)c1cnn2cccnc12 | –
8.89 | 9.35 | 21 | O=C(Nc1c[nH]nc1-c1cc(Cl)ccc1OC1CC1)c1cnn2cccnc12 | –
9.15 | 9.72 | 34 | O=C(Nc1c[nH]nc1-c1cc(F)ccc1OC(F)F)c1cnn2cccnc12 | –
9.72 | 10.38 | 4 | Nc1nn2cccnc2c1C(=O)Nc1c[nH]nc1-c1cc(Cl)ccc1OC(F)F | CLint scaled at 1 µM [4]: 11 mL/min/kg; Papp A→B at 3 h, 10 µM [5]: 15 ×10⁻⁶ cm/s; logD [6]: 3.3; inhibition at 1 h, 0.1 µM [7]: 99%; efflux ratio at 3 h, 10 µM [8]: 0.83
9.25 | 9.31 | 18 | O=C(Nc1c[nH]nc1-c1cc(Cl)ccc1OC(F)F)c1cncc2c[nH]nc12 | CLint scaled at 1 µM [4]: 15 mL/min/kg; pIC50 [9]: 7.10; Ratio IC50 [10]: 41; Papp A→B at 3 h, 10 µM [5]: 9.5 ×10⁻⁶ cm/s; logD [6]: 2.7; inhibition at 1 h, 0.1 µM [7]: 52%; efflux ratio at 3 h, 10 µM [8]: 1.9; pIC50 [11]: 8.72
8.85 | 9.47 | 27 | Cc1ccc(OC(F)F)c(-c2n[nH]cc2NC(=O)c2cnn3cccnc23)c1 | –
9.51 | 9.80 | 140 | COc1cc(O)c(Cl)cc1-c1n[nH]cc1NC(=O)c1cnn2cccnc12 | –
8.85 | 9.10 | 54 | CCOc1ccc(Cl)cc1-c1n[nH]cc1NC(=O)c1cnn2cccnc12 | –
9.29 | 9.77 | 9.2 | O=C(Nc1c[nH]nc1-c1cc(Cl)ccc1OC(F)F)c1cncc2scnc12 | –
9.25 | 9.80 | 14 | O=C(Nc1c[nH]nc1-c1c(OC(F)F)ccc(Cl)c1F)c1cnn2cccnc12 | –
9.22 | 9.11 | 20 | COc1ccc(Cl)cc1-c1nn(C)cc1NC(=O)c1cncc2c[nH]nc12 | –
9.82 | 10.35 | 2.8 | O=C(Nc1c[nH]nc1-c1cc(I)ccc1OC(F)F)c1cnn2cccnc12 | CLint scaled at 1 µM [4]: 15 mL/min/kg; Papp A→B at 3 h, 10 µM [5]: 15 ×10⁻⁶ cm/s; logD [6]: 3.4; inhibition at 1 h, 0.1 µM [7]: 91%; efflux ratio at 3 h, 10 µM [8]: 1
